Assay results: paper PMC3427755 (Organic & biomolecular chemistry, 2012)
Entries after “also recorded” stand apart in the source; their conditions may differ. Like-named read-outs stand apart in the source and are kept apart here.

Columns and labels:
B-Raf^V600E = B-Raf^V600E (Homo sapiens, UniProt P15056, V600E); experiment: In vitro B-Raf kinase assay; format: biochemical; conditions: for Inhibition rate B-Raf^V600E: [I]=1μM
[1] = test system: SW620 (B-Raf^WT) human colonic carcinoma cells; experiment: Anti-proliferation activity, SW620 cells; format: cell-based; conditions: SW-620, read-out: Tumor growth inhibition rate SW620 (B-Raf)
B-Raf^WT = B-Raf^WT (Homo sapiens, UniProt P15056); experiment: In vitro B-Raf kinase assay; format: biochemical; conditions: for inhibition at 2 µM: read-out: Inhibition rate (%) B-Raf; for Inhibition rate B-Raf: [I]=1μM; for Inhibition rate (%) B-Raf: 2μM of compound
Chain of B-Raf^WT (P15056 433-726): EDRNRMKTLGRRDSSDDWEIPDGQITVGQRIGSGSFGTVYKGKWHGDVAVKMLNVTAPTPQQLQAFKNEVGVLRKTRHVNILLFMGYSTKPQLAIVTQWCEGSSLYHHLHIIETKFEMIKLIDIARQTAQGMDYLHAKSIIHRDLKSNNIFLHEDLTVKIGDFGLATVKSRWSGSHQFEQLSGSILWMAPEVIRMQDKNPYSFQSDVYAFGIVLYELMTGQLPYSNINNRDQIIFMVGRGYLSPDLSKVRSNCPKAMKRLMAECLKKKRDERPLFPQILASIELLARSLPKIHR

[2] = test system: A375 (B-Raf^V600E) malignant melanoma cells; experiment: Anti-proliferation activity, A375 melanoma cells; format: cell-based, human; conditions: for inhibition at 10 µM: Homo sapiens, A-375, read-out: Tumor growth inhibition rate A375(B-Raf^V600E); for Tumor growth inhibition rate A375(B-Raf^V600E): [I]=10μM
[3] = read-out: Inhibition rate (%) B-Raf^V600E
[4] = read-out: Inhibition rate (%) B-Raf^V600E, 2μM of compound
[5] = read-out: Inhibition rate (%) B-Raf^V600E, 0.5μM of compound

Chain of B-Raf^V600E (P15056 433-726 V600E): as the sequence (P15056 433-726) above, with V168E counted along it

## CC(C)(C)c1ccc(-c2ccc(C=C3C(=O)NC(=S)NC3=O)o2)cc1 [Compound 22i, 5-[5-(4-tert-butyl-phenyl)-furan-2ylmethylene]-2-thioxo-dihydro-pyrimidine-4,6-dione]
B-Raf^V600E; [3]
  inhibition at 0.5 µM: 36%
  inhibition at 2 µM: 57%
[1]
  inhibition at 10 µM: 7.6%
B-Raf^WT
  inhibition at 2 µM: 29%
[2]
  inhibition at 10 µM: 95.4%
[2]; 10 µM
  Tumor growth inhibition rate A375(B-Raf^V600E): potent growth inhibition activity; also recorded: virtually complete growth inhibition

## O=C1C(=Cc2ccc(-c3ccc(Br)cc3)o2)Cc2ccccc21 [Compound 16f, 2-[5-(4-bromo-phenyl)-furan-2-ylmethylene]-indan-1-one]
B-Raf^V600E; [4]
  inhibition at 2 µM: 42%

## O=C1Nc2ccccc2C1=Cc1ccc(-c2cc(C(F)(F)F)ccc2Cl)o1 [Compound 17d, 3-[5-(2-chloro-5-trifluomethyl)-furan-2-ylmethylene]-1,3-dihydro-indol-2-one]
B-Raf^V600E; 2μM of compound
  Inhibition rate (%) B-Raf^V600E: 23% n.d.

## O=C1NC(=S)NC(=O)C1=Cc1ccc(-c2ccc(Cl)cc2[N+](=O)[O-])o1 [Compound 22n, 5-[5-(2-nitro-4-chloro)-furan-2ylmethylene]-2-thioxo-dihydro-pyrimidine-4,6-dione]
B-Raf^V600E
  Inhibition rate B-Raf^V600E: 22%
B-Raf^WT
  Inhibition rate B-Raf: 20%

## O=C1NC(=S)NC(=O)C1=Cc1ccc(-c2ccc(Cl)cc2C(F)(F)F)o1 [Compound 22o, 5-[5-(2-trifluomethyl-4-chloro)-furan-2ylmethylene]-2-thioxo-dihydro-pyrimidine-4,6-dione]
B-Raf^V600E
  Inhibition rate B-Raf^V600E: 49%
B-Raf^WT
  Inhibition rate B-Raf: 24%

## O=C1Nc2cc(Cl)ccc2C1=Cc1ccc(-c2cc(C(F)(F)F)ccc2Cl)o1 [Compound 17f, 3-[5-(2-chloro-5-trifluomethyl)-furan-2-ylmethylene]-6-chloro-1,3-dihydro-indol-2-one]
B-Raf^V600E; 2μM of compound
  Inhibition rate (%) B-Raf^V600E: 34% n.d.

## O=C1C(=Cc2ccc(-c3cccc(C(F)(F)F)c3)o2)Cc2ccccc21 [Compound 16b, 2-[5-(3-trifluomethyl-phenyl)-furan-2-ylmethylene]-indan-1-one]
B-Raf^V600E; 2μM of compound
  Inhibition rate (%) B-Raf^V600E: 22% n.d.

## O=C1NC(=S)NC(=O)C1=Cc1ccc(-c2ccc(Cl)c(C(F)(F)F)c2)o1 [Compound 22p, 5-[5-(3-trifluomethyl-4-chloro)-furan-2ylmethylene]-2-thioxo-dihydro-pyrimidine-4,6-dione]
B-Raf^V600E
  Inhibition rate B-Raf^V600E: 48%
B-Raf^WT
  Inhibition rate B-Raf: 37%

## COc1cccc(-c2ccc(C=C3SC(=O)NC3=O)o2)c1 [Compound 19b, 5-[5-(3-methoxy-phenyl)-furan-2ylmethylene]-thiazolidine-2,4-dione]
B-Raf^V600E; [4]
  inhibition at 2 µM: 34%

## COc1ccc(-c2ccc(C=C3C(=O)NC(=S)NC3=O)o2)cc1 [Compound 22h, 5-[5-(4-methoxy-phenyl)-furan-2ylmethylene]-2-thioxo-dihydro-pyrimidine-4,6-dione]
B-Raf^V600E
  IC50: 2690 nM
[1]
  inhibition at 10 µM: 13%
B-Raf^WT
  IC50: 3690 nM
[2]
  inhibition at 10 µM: 94.4%
[2]; 10 µM
  Tumor growth inhibition rate A375(B-Raf^V600E): potent growth inhibition activity; also recorded: virtually complete growth inhibition

## O=C1NC(=O)C(=Cc2ccc(-c3ccc([N+](=O)[O-])cc3)o2)S1 [Compound 19c, 5-[5-(4-nitro-phenyl)-furan-2ylmethylene]-thiazolidine-2,4-dione]
B-Raf^V600E; [4]
  inhibition at 2 µM: 48%

## O=C1NC(=S)NC(=O)C1=Cc1ccc(-c2ccc3ccccc3c2)o1 [Compound 22j, 5-[5-(2-naphthyl)-furan-2ylmethylene]-2-thioxo-dihydro-pyrimidine-4,6-dione]
B-Raf^V600E
  IC50: 1070 nM
B-Raf^WT
  IC50: 1930 nM
[2]
  inhibition at 10 µM: 6.9%

## COc1cccc(-c2ccc(C=C3C(=O)NC(=S)NC3=O)o2)c1 [Compound 22b, 5-[5-(3-methoxy-phenyl)-furan-2ylmethylene]-2-thioxo-dihydro-pyrimidine-4,6-dione]
B-Raf^V600E; [3]
  inhibition at 0.5 µM: 34%
  inhibition at 2 µM: 63%
B-Raf^WT
  inhibition at 2 µM: 6%
[2]
  inhibition at 10 µM: 26.2%

## O=C1C(=Cc2ccc(-c3ccc(Cl)cc3)o2)Cc2ccccc21 [Compound 16e, 2-[5-(4-chloro-phenyl)-furan-2-ylmethylene]-indan-1-one]
B-Raf^V600E; [5]
  inhibition at 0.5 µM: 41%
B-Raf^V600E; [4]
  inhibition at 2 µM: > 50%
[2]
  inhibition at 10 µM: 5.2%

## CC(C)(C)c1ccc(-c2ccc(C=C3SC(=O)NC3=O)o2)cc1 [Compound 19i, 5-[5-(4-tert-butyl-phenyl)-furan-2ylmethylene]-thiazolidine-2,4-dione]
B-Raf^V600E; [4]
  inhibition at 2 µM: 34%
B-Raf^WT
  inhibition at 2 µM: 17%

## O=C1NC(=S)NC(=O)C1=Cc1ccc(-c2cccc(C(F)(F)F)c2)o1 [Compound 22l, 5-[5-(3-trifluomethyl-phenyl)-furan-2ylmethylene]-2-thioxo-dihydro-pyrimidine-4,6-dione]
B-Raf^V600E
  Inhibition rate B-Raf^V600E: 45%
B-Raf^WT
  Inhibition rate B-Raf: 30%

## O=C1C(=Cc2ccc(-c3ccccc3[N+](=O)[O-])o2)Cc2ccccc21 [Compound 16a, 2-[5-(2-nitro-phenyl)-furan-2-ylmethylene]-indan-1-one]
B-Raf^V600E; [5]
  inhibition at 0.5 µM: 47%
B-Raf^V600E; [4]
  inhibition at 2 µM: > 50%
B-Raf^WT
  inhibition at 2 µM: 11%
[2]
  inhibition at 10 µM: 16.5%

## O=C1C(=Cc2ccc(-c3cccc(C(F)(F)F)c3)o2)Cc2cc(Cl)ccc21 [Compound 16c, 2-[5-(3-trifluomethyl-phenyl)-furan-2-ylmethylene]-5-chloro-indan-1-one]
B-Raf^V600E; 0.5μM of compound
  Inhibition rate (%) B-Raf^V600E: 42%
[2]
  Tumor growth inhibition rate A375(B-Raf^V600E): 3.2

## O=C1NC(=S)NC(=O)C1=Cc1ccc(-c2ccc([N+](=O)[O-])cc2)o1 [Compound 22c, 5-[5-(4-nitro-phenyl)-furan-2ylmethylene]-2-thioxo-dihydro-pyrimidine-4,6-dione]
B-Raf^V600E; [3]
  inhibition at 2 µM: 59%
B-Raf^WT
  inhibition at 2 µM: 55%
[2]
  inhibition at 10 µM: 46.3%

## O=C1Nc2ccc(Cl)cc2C1=Cc1ccc(-c2cc(C(F)(F)F)ccc2Cl)o1 [Compound 17e, 3-[5-(2-chloro-5-trifluomethyl)-furan-2-ylmethylene]-5-chloro-1,3-dihydro-indol-2-one]
B-Raf^V600E; 2μM of compound
  Inhibition rate (%) B-Raf^V600E: 34% n.d.

## O=C1Nc2cc(Cl)ccc2C1=Cc1ccc(-c2cccc(C(F)(F)F)c2)o1 [Compound 17b, 3-[5-(3-trifluomethyl-phenyl)-furan-2-ylmethylene]-6-chloro-1,3-dihydro-indol-2-one]
B-Raf^V600E; 2μM of compound
  Inhibition rate (%) B-Raf^V600E: 38% n.d.

## O=C1NC(=O)C(=Cc2ccc(-c3ccc4ccccc4c3)o2)S1 [Compound 19j, 5-[5-(2-naphthyl)-furan-2ylmethylene]-thiazolidine-2,4-dione]
B-Raf^V600E; [4]
  inhibition at 2 µM: 51%

## O=C1Nc2ccc(Cl)cc2C1=Cc1ccc(-c2cccc(C(F)(F)F)c2)o1 [Compound 17c, 3-[5-(3-trifluomethyl-phenyl)-furan-2-ylmethylene]-5-chloro-1,3-dihydro-indol-2-one]
B-Raf^V600E; 2μM of compound
  Inhibition rate (%) B-Raf^V600E: 23% n.d.
B-Raf^WT
  Inhibition rate (%) B-Raf: 17% n.d.

## O=C1NC(=O)C(=Cc2ccc(-c3ccccc3[N+](=O)[O-])o2)S1 [Compound 19a, 5-[5-(2-nitro-phenyl)-furan-2ylmethylene]-thiazolidine-2,4-dione]
B-Raf^V600E; [4]
  inhibition at 2 µM: 7%

## O=C1C(=Cc2ccc(-c3cc(C(F)(F)F)ccc3Cl)o2)Cc2ccccc21 [Compound 16g, 2-[5-(2-chloro-5-trifluomethyl)-furan-2-ylmethylene]-indan-1-one]
B-Raf^V600E; 2μM of compound
  Inhibition rate (%) B-Raf^V600E: 44% n.d.

## COc1ccc(-c2ccc(C=C3SC(=O)NC3=O)o2)cc1 [Compound 19h, 5-[5-(4-methoxy-phenyl)-furan-2ylmethylene]-thiazolidine-2,4-dione]
B-Raf^V600E; [4]
  inhibition at 2 µM: 41%
B-Raf^WT
  inhibition at 2 µM: 3%

## O=C1Nc2ccccc2C1=Cc1ccc(-c2cccc(C(F)(F)F)c2)o1 [Compound 17a, 3-[5-(3-trifluomethyl-phenyl)-furan-2-ylmethylene]-1,3-dihydro-indol-2-one]
B-Raf^V600E; 2μM of compound
  Inhibition rate (%) B-Raf^V600E: 34% n.d.

## Cc1ccc(-c2ccc(C=C3SC(=O)NC3=O)o2)cc1 [Compound 19g, 5-[5-(4-methyl-phenyl)-furan-2ylmethylene]-thiazolidine-2,4-dione]
B-Raf^V600E; [4]
  inhibition at 2 µM: 41%

## O=C1NC(=O)C(=Cc2ccc(-c3cc(C(F)(F)F)ccc3Cl)o2)S1 [Compound 19k, 5-[5-(2-chloro-5-trifluomethyl)-furan-2ylmethylene]-thiazolidine-2,4-dione]
B-Raf^V600E; 2μM of compound
  Inhibition rate (%) B-Raf^V600E: 37% n.d.
B-Raf^WT
  Inhibition rate (%) B-Raf: 18% n.d.

## O=C1C(=Cc2ccc(-c3ccc([N+](=O)[O-])cc3)o2)Cc2ccccc21 [Compound 16d, 2-[5-(4-nitro-phenyl)-furan-2-ylmethylene]-indan-1-one]
B-Raf^V600E; [4]
  inhibition at 2 µM: 34%

## O=C1NC(=S)NC(=O)C1=Cc1ccc(-c2cc(C(F)(F)F)ccc2Cl)o1 [Compound 22k, 5-[5-(2-chloro-5-trifluomethyl)-furan-2ylmethylene]-2-thioxo-dihydro-pyrimidine-4,6-dione]
[2]
  Tumor growth inhibition rate A375(B-Raf^V600E): 18.3

## O=C1NC(=S)NC(=O)C1=Cc1ccc(-c2ccc(Cl)cc2)o1 [Compound 22e, 5-[5-(4-chloro-phenyl)-furan-2ylmethylene]-2-thioxo-dihydro-pyrimidine-4,6-dione]
B-Raf^V600E; [3]
  inhibition at 0.5 µM: 33%
  inhibition at 2 µM: 69%
[1]
  inhibition at 10 µM: 9%
B-Raf^WT
  inhibition at 2 µM: 15%
[2]
  inhibition at 10 µM: 82.9%
  Tumor growth inhibition rate A375(B-Raf^V600E): potent growth inhibition activity

## O=C1NC(=S)NC(=O)C1=Cc1ccc(-c2ccccc2[N+](=O)[O-])o1 [Compound 22a, 5-[5-(2-nitro-phenyl)-furan-2ylmethylene]-2-thioxo-dihydro-pyrimidine-4,6-dione]
B-Raf^V600E; [3]
  inhibition at 0.5 µM: 48%
  inhibition at 2 µM: 61%
B-Raf^WT
  inhibition at 2 µM: 38%
